From PubChem BioAssay AID743039 (Broad Institute, 2013)
Calls of active or inactive are those of the source.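 Rule for the calls: active = fitted curve rises past 0.47 at a concentration no higher than the top valid tested dose; inconclusive = flat curve at a moderate level, or poor fit; inactive = the rest, including signal moving the wrong way.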

system: compound-only thermal shift, SYPRO orange fluorescence, no protein; assay: compound-only thermal shift interference, dose response, artefact control for FGF22 binder project, biophysical, SYPRO orange, qPCR instrument, dry powder samples (AID 743039); details: at 0.16 µM

Compound	thermal shift signal, higher = interference
Cc1ccc(S(=O)(=O)N2C[C@@H](O)COC[C@@H]3O[C@@H](CC(=O)NCc4ccc(Cl)c(Cl)c4)CC[C@H]32)cc1	0.045% (inactive)
CCCNC(=O)COC(=O)c1ccccc1C(=O)N(C)C1CCCCC1	-0.157% (inactive)
CC(C)c1c(C(=O)N/N=C/c2c[nH]c3ccccc23)nnn1-c1nonc1N	-0.009% (inactive)
Cc1ccc(OCCCC(=O)Nc2ccc(S(=O)(=O)N3CCOCC3)cc2)cc1	-0.12% (inactive)
CCN1C(=O)C(CC(=O)Nc2ccc(F)cc2)N(Cc2ccc3c(c2)OCO3)C1=S (stereo not given)	-0.165% (inactive)
Cc1[nH]c2ccc(C(=O)OCC(=O)Nc3cccc(S(N)(=O)=O)c3)cc2c1C	-0.322% (inactive)
Cc1cc(NC(=O)Nc2ccc3c(ccn3C)c2)sn1	0.052% (inactive)
CCc1cc(-c2n[nH]c(C)c2-c2ccc3c(c2)OCCO3)c(O)cc1O	-0.093% (inactive)
COC(=O)C1=C(CS(=O)(=O)c2cc(OC)ccc2OC)NC(=O)NC1c1ccc(O)c(OC)c1 (stereo not given)	-0.182% (inactive)
CCNC(=O)C[C@@H]1CC[C@H]2[C@H](COc3ccc(NC(=O)Nc4ccc(Cl)cc4)cc3C(=O)N2C)O1	0.052% (inactive)
O=C(Nc1cc(Cl)cc(Cl)c1)N[C@@H]1CC[C@@H](CCNS(=O)(=O)c2cccc(F)c2)O[C@@H]1CO	0.004% (inactive)
O=C(Nc1ccc(S(=O)(=O)N2CCOCC2)cc1)c1ccc(F)cc1	-0.05% (inactive)
O=C(Nc1nccs1)C1CC(=O)N(c2ccc(F)cc2)C1 (stereo not given)	-0.148% (inactive)
COC(=O)C[C@H]1CC[C@@H]2[C@@H](COc3ccc(NC(=O)Nc4ccc(C#N)cc4)cc3C(=O)N2C)O1	0.237% (inactive)
O=C(Nc1cc(Cl)cc(Cl)c1)N[C@@H]1CC[C@@H](CCNS(=O)(=O)c2cccc(F)c2)O[C@H]1CO	0.061% (inactive)
COC(=O)C[C@H]1CC[C@@H]2[C@@H](COc3ccc(NC(=O)Nc4cccc(C#N)c4)cc3C(=O)N2C)O1	0.097% (inactive)
COc1ccc(Nc2nc3ccc(OC)cc3s2)cc1	0.188% (inactive)
O=S(=O)(Nc1nnc(C(F)(F)F)s1)c1ccc(Cl)cc1	-0.081% (inactive)
Cc1ccc(S(=O)(=O)N2C[C@H](O)COC[C@H]3O[C@H](CC(=O)NCc4ccc(Cl)c(Cl)c4)CC[C@@H]32)cc1	0.168% (inactive)
O=C(C[C@H]1CC[C@@H]2[C@H](COC[C@H](O)CN2S(=O)(=O)c2cccc(Cl)c2)O1)Nc1ccccc1	-0.063% (inactive)
CC(=O)Nc1cccc(NC(=O)c2ccc3[nH]c(C)c(C)c3c2)c1	-0.227% (inactive)

The remaining lines, values ahead:

thermal shift signal, higher = interference	Compound
0.048% (inactive)	CCN1C/C(=C/c2cccs2)c2nc3ccccc3c(C(=O)O)c2C1
0.048% (inactive)	O=C(NCCc1c[nH]c2ccccc12)c1ccc(Cl)cc1
-0.114% (inactive)	COc1cc(/C=N/NC(=O)c2cc3ccccc3[nH]2)ccc1O
-0.045% (inactive)	CN(Cc1c(C(=O)N/N=C/c2ccc(O)cc2)nnn1-c1nonc1N)c1ccccc1
0.069% (inactive)	O=C(N/N=C/c1c[nH]c2ccccc12)c1cccc(Cl)c1
-0.049% (inactive)	CCc1cc(-c2[nH]ncc2-c2ccc3c(c2)OCCO3)c(O)cc1O
0.355% (inactive)	O=C(N/N=C/c1c[nH]c2ccccc12)c1cccc(O)c1
0.246% (inactive)	CC(=O)Nc1ccc(NC(=O)Nc2ccccc2)cc1
-0.157% (inactive)	O=C(Nc1ccc(S(=O)(=O)N2CCCC2)cc1)c1cccs1
0.011% (inactive)	COc1ccc(-c2nc(-c3ccc(O)cc3O)cs2)cc1OC
-0.178% (inactive)	Clc1ccc(Nc2ccc(NCc3ccccc3)nn2)cc1
0.145% (inactive)	Cc1cc(C(=O)N/N=C/c2c[nH]c3ccccc23)cs1
-0.043% (inactive)	O=C(Nc1ccc(Cl)cc1)N[C@@H]1CC[C@@H](CCNS(=O)(=O)c2ccccc2F)O[C@H]1CO
-0.028% (inactive)	O=C(N/N=C/c1ccc(C(F)(F)F)cc1)c1ccc(O)cc1
-0.026% (inactive)	O=C(N/N=C/c1cccc(Oc2ccccc2)c1)c1cccc(O)c1
0.188% (inactive)	O=C(O)Cc1ccc(NC(=O)c2ccc(Cl)c(Cl)c2)cc1
-0.182% (inactive)	O=C(N/N=C/c1c[nH]c2ccccc12)c1cccs1
0.235% (inactive)	CC(=O)c1ccc(NC(=O)Nc2cccnc2)cc1
0.145% (inactive)	Nc1cccc(-c2nc3ccc(C(=O)c4ccccc4)cc3[nH]2)c1
0.042% (inactive)	Nc1ccc(C(=O)N/N=C/c2c[nH]c3ccccc23)cc1
0.019% (inactive)	CC(=O)Nc1cccc(C(=O)N/N=C/c2c[nH]c3ccccc23)c1
-0.005% (inactive)	COc1ccc(C)cc1NS(=O)(=O)c1ccc(NS(=O)(=O)c2ccc(NC(C)=O)cc2)cc1
-0.209% (inactive)	O=C(Nc1ccc(S(=O)(=O)N2CCCC2)cc1)c1ccccc1
-0.057% (inactive)	Cc1ccn(-c2ccc(NC(=O)c3cccs3)cc2)n1
0.305% (inactive)	CSc1ccc(/C=N/NC(=O)c2ccc3nc[nH]c3c2)cc1
-0.066% (inactive)	CCOc1cccc(C(=O)Nc2ccc3[nH]ncc3c2)c1
-0.148% (inactive)	Cc1[nH]c2ccccc2c1C(=O)NS(=O)(=O)Nc1ccc(Cl)cc1
0.065% (inactive)	O=C(N/N=C/c1c[nH]c2ccccc12)c1ccc(O)c(O)c1
0.057% (inactive)	O=S1(=O)N=C(N(Cc2cccs2)c2ccc(O)cc2)c2ccccc21
